Experimental data as given in ChEMBL document CHEMBL5356958, “Discovery of a Highly Potent and Selective MYOF Inhibitor with Improved Water Solubility for the Treatment of Gastric Cancer” (J Med Chem, 2023).
Converted amounts (≈) assume the structure as drawn. The source made the active and inactive calls. The rule behind the calls is not given here.

Key:
[1] = Mean residence time in ICR mouse at 10 mg/kg, po; type: ADME, organism-based; conditions: in vivo
[2] = Toxicity in BALB/c mouse assessed as change in heart morphology at 15 to 30 mg/kg, ip measured every 3 days for 21 days by HE staining based assay; type: organism-based; conditions: in vivo, 504 h, dose 15-30 mg/kg, time 21 day
[3] = target: Myoferlin (Homo sapiens, UniProt Q9NZM1); assay: Binding affinity to MYOF C2D (unknown origin) expressed in Escherichia coli BL21(DE3) by SPR analysis
[4] = Volume of distribution at steady state in ICR mouse at 1 mg/kg, iv; type: ADME, organism-based; conditions: in vivo, read-out: Vdss
[5] = Half life in ICR mouse at 1 mg/kg, iv; type: ADME, organism-based; conditions: in vivo
[6] = target: Cytochrome P450 2C19 (Homo sapiens, UniProt P33261); assay: Inhibition of CYP2C19 in human liver microsomes; type: ADME, Microsome
[7] = AUC(0 to t) in ICR mouse at 1 mg/kg, iv; type: ADME, organism-based; set-up: dose 1 mg/kg, route iv; conditions: in vivo
[8] = tested on: MKN-45; assay: Antiproliferative activity against human MKN-45 cells incubated for 48 hrs by SRB assay; type: functional, cell-based; conditions: MKN-45, 48 h
[9] = tested on: BXPC-3; assay: Antiproliferative activity against human BXPC-3 cells incubated for 48 hrs by SRB assay; type: functional, cell-based; conditions: BXPC-3, 48 h
[10] = tested on: MKN-45; assay: Antiproliferative activity against MYOF knocked down human MKN-45 cells incubated for 48 hrs by SRB assay; type: functional, cell-based
[11] = tested on: BGC-823; assay: Antiproliferative activity against human BGC-823 cells incubated for 48 hrs by SRB assay; type: functional, cell-based; conditions: BGC-823, 48 h
[12] = Aqueous solubility of compound in PBS at pH 7.4; type: physicochemical
[13] = tested on: AGS; assay: Antiproliferative activity against human AGS cells incubated for 48 hrs by SRB assay; type: functional, cell-based
[14] = tested on: MKN-45; assay: Induction of apoptosis in human MKN-45 cells assessed as early apoptotic cells at 800 nM incubated for 48 hrs by Annexin V-FITC/PI staining based flow cytometry analysis (reference value: 0.5%); type: functional
[15] = AUC(0 to t) in ICR mouse at 10 mg/kg, po; type: ADME, organism-based; set-up: dose 10 mg/kg, route po; conditions: in vivo
[16] = tested on: MKN-45; assay: Inhibition of human MKN-45 cells colony formation incubated for 10 days by crystal violet staining based assay; type: functional, cell-based; conditions: dose 50-100 nM, time 10.0 day
[17] = tested on: MFC; assay: Antiproliferative activity against MFC cells incubated for 48 hrs by SRB assay; type: functional, cell-based; conditions: Mus musculus
[18] = Aqueous solubility of compound in PBS at pH 2; type: physicochemical
[19] = tested on: SGC-7901; assay: Antiproliferative activity against human SGC-7901 cells incubated for 48 hrs by SRB assay; type: functional, cell-based; conditions: SGC-7901, 48 h
[20] = target: hERG (KCNH2) (Homo sapiens, UniProt Q12809); assay: Inhibition of human ERG at 40 uM relative to control; type: toxicity
[21] = tested on: MKN-45; assay: Inhibition of epithelial mesenchymal transition in human MKN-45 cells assessed as upregulation in E-cadherin level by Western blotting analysis; type: functional, cell-based; conditions: dose 100-400 nM
[22] = tested on: DU-145; assay: Antiproliferative activity against human DU-145 cells incubated for 48 hrs by SRB assay; type: functional, cell-based; conditions: DU-145, 48 h
[23] = Clearance in ICR mouse at 1 mg/kg, iv; type: ADME, organism-based; conditions: in vivo
[24] = target: Voltage-gated inwardly rectifying potassium channel KCNH2 (Homo sapiens, UniProt Q12809); assay: Inhibition of human ERG; type: toxicity
[25] = Toxicity in BALB/c mouse assessed as change in liver morphology at 15 to 30 mg/kg, ip measured every 3 days for 21 days by HE staining based assay; type: organism-based; conditions: in vivo, 504 h, dose 15-30 mg/kg, time 21 day
[26] = tested on: MKN-45; assay: Antitumor activity against human MKN-45 cells xenografted in BALB/c mouse assessed as tumor growth inhibition at 30 mg/kg/day, ip measured every 3 days for 21 days; type: functional; conditions: MKN-45, 504 h, time 21 day, read-out: TGI
[27] = tested on: MKN-45; assay: Induction of apoptosis in human MKN-45 cells assessed as early apoptotic cells at 400 nM incubated for 48 hrs by Annexin V-FITC/PI staining based flow cytometry analysis (reference value: 0.5%); type: functional
[28] = target: Cytochrome P450 2D6 (Homo sapiens, UniProt P10635); assay: Inhibition of CYP2D6 in human liver microsomes; type: ADME, Microsome
[29] = AUC(0 to infinity) in ICR mouse at 1 mg/kg, iv; type: ADME, organism-based; set-up: dose 1 mg/kg, route iv; conditions: in vivo
[30] = Toxicity in BALB/c mouse assessed as change in spleen morphology at 15 to 30 mg/kg, ip measured every 3 days for 21 days by HE staining based assay; type: organism-based; conditions: in vivo, 504 h, dose 15-30 mg/kg, time 21 day
[31] = tested on: MKN-45; assay: Induction of apoptosis in human MKN-45 cells assessed as late apoptotic cells at 400 nM incubated for 48 hrs by Annexin V-FITC/PI staining based flow cytometry analysis (reference value: 2.6%); type: functional
[32] = tested on: MGC-803; assay: Antiinvasive activity against human MGC-803 cells incubated for 24 hrs by crystal violet staining based inverted microscopic analysis; type: functional, cell-based
[33] = tested on: MKN-45; assay: Induction of apoptosis in human MKN-45 cells assessed as late apoptotic cells at 800 nM incubated for 48 hrs by Annexin V-FITC/PI staining based flow cytometry analysis (reference value: 2.6%); type: functional
[34] = Toxicity in BALB/c mouse assessed as change in lung morphology at 15 to 30 mg/kg, ip measured every 3 days for 21 days by HE staining based assay; type: organism-based; conditions: in vivo, 504 h, dose 15-30 mg/kg, time 21 day
[35] = Toxicity in BALB/c mouse assessed as change in body weight at 15 to 30 mg/kg, ip measured every 3 days for 21 days; type: organism-based; conditions: in vivo, 504 h, dose 15-30 mg/kg, time 21 day
[36] = tested on: MKN-45; assay: Antitumor activity against human MKN-45 cells xenografted in BALB/c mouse assessed as tumor growth inhibition at 15 mg/kg/day, ip measured every 3 days for 21 days; type: functional; conditions: MKN-45, 504 h, time 21 day, read-out: TGI
[37] = tested on: MKN-45; assay: Induction of apoptosis in human MKN-45 cells assessed as early apoptotic cells at 200 nM incubated for 48 hrs by Annexin V-FITC/PI staining based flow cytometry analysis (reference value: 0.5%); type: functional
[38] = target: Serine/threonine-protein kinase AKT (Homo sapiens) (UniProt P31751+Q9Y243+P31749); assay: Inhibition of AKT phosphorylation in human MKN-45 cells by Western blot analysis; type: cell-based
[39] = tested on: MKN-45; assay: Induction of apoptosis in human MKN-45 cells assessed as late apoptotic cells at 100 nM incubated for 48 hrs by Annexin V-FITC/PI staining based flow cytometry analysis (reference value: 2.6%); type: functional
[40] = target: Cytochrome P450 2C9 (Homo sapiens, UniProt P11712); assay: Inhibition of CYP2C9 in human liver microsomes; type: ADME, Microsome
[41] = tested on: MKN-45; assay: Induction of apoptosis in human MKN-45 cells assessed as early apoptotic cells at 100 nM incubated for 48 hrs by Annexin V-FITC/PI staining based flow cytometry analysis (reference value: 0.5%); type: functional
[42] = tested on: MKN-45; assay: Induction of apoptosis in human MKN-45 cells assessed as late apoptotic cells at 200 nM incubated for 48 hrs by Annexin V-FITC/PI staining based flow cytometry analysis (reference value: 2.6%); type: functional
[43] = Cmax in ICR mouse at 10 mg/kg, po; type: ADME, organism-based; set-up: dose 10 mg/kg, route po; conditions: in vivo
[44] = tested on: MGC-803; assay: Antiproliferative activity against human MGC-803 cells incubated for 48 hrs by SRB assay; type: functional, cell-based; conditions: MGC-803, 48 h

Sequence of Myoferlin (Q9NZM1 whole entry): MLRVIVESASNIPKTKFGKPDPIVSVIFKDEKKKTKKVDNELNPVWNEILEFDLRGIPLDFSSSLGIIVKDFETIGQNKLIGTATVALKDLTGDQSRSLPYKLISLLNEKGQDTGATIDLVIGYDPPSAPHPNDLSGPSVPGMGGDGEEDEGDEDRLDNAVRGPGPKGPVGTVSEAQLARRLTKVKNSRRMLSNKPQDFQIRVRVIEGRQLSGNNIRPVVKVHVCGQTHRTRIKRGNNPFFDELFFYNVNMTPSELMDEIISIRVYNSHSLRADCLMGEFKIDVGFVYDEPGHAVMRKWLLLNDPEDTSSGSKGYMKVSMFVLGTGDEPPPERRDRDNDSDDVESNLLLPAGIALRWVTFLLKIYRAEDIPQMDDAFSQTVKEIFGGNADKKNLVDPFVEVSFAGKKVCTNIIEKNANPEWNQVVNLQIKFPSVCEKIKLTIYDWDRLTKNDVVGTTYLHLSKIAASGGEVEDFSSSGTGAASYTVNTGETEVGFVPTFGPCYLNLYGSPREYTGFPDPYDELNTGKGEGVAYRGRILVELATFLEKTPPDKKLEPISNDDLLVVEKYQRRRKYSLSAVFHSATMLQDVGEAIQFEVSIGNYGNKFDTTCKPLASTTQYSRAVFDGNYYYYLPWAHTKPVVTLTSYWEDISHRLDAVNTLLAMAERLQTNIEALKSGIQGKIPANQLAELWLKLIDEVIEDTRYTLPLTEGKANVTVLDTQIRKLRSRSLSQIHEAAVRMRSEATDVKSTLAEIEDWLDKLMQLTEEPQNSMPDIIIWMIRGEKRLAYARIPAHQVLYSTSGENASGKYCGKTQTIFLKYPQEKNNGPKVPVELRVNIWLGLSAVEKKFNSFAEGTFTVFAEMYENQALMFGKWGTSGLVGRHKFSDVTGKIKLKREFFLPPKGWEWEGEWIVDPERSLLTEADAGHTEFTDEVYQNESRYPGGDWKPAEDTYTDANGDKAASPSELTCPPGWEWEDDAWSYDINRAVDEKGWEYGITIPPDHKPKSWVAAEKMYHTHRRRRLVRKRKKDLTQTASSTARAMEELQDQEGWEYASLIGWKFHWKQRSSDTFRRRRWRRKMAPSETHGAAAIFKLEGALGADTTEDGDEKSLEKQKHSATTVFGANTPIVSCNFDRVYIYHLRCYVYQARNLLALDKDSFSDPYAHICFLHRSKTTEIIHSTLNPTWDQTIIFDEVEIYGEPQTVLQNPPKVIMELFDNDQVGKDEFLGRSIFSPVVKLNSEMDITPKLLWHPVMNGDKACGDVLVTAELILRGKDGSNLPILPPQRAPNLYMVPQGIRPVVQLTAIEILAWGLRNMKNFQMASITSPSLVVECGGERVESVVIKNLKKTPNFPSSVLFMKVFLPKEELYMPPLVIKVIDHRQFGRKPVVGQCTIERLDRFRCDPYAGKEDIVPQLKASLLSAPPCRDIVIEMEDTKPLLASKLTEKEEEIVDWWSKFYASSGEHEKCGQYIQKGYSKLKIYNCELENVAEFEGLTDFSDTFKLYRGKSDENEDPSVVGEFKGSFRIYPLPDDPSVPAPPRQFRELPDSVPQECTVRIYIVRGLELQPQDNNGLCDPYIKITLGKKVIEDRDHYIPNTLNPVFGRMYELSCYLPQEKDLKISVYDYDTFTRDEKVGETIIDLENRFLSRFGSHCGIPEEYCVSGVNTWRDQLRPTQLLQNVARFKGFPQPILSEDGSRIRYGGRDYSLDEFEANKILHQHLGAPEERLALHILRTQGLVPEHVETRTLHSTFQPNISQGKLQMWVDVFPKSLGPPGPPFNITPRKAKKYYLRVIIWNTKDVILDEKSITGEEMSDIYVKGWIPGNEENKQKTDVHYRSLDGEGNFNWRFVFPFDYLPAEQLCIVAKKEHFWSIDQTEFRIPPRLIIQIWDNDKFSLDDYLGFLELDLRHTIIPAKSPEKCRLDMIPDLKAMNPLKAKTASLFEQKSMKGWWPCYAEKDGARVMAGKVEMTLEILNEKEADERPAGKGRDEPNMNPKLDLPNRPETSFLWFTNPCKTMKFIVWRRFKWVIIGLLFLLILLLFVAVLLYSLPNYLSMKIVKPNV
Sequence of Cytochrome P450 2C9 (P11712 whole entry): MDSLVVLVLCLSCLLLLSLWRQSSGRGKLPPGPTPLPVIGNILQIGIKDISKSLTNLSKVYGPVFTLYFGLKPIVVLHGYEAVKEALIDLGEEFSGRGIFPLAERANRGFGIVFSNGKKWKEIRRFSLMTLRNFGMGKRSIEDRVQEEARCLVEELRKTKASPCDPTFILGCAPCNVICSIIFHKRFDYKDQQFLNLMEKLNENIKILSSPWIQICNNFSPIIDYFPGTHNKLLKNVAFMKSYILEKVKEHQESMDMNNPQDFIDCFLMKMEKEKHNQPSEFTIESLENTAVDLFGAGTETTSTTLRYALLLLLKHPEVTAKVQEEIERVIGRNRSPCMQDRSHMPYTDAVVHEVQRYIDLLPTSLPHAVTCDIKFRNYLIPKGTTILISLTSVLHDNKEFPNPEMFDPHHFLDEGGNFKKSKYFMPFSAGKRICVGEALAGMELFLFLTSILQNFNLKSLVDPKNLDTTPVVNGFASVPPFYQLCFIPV
Sequence of hERG (KCNH2) (Q12809 whole entry): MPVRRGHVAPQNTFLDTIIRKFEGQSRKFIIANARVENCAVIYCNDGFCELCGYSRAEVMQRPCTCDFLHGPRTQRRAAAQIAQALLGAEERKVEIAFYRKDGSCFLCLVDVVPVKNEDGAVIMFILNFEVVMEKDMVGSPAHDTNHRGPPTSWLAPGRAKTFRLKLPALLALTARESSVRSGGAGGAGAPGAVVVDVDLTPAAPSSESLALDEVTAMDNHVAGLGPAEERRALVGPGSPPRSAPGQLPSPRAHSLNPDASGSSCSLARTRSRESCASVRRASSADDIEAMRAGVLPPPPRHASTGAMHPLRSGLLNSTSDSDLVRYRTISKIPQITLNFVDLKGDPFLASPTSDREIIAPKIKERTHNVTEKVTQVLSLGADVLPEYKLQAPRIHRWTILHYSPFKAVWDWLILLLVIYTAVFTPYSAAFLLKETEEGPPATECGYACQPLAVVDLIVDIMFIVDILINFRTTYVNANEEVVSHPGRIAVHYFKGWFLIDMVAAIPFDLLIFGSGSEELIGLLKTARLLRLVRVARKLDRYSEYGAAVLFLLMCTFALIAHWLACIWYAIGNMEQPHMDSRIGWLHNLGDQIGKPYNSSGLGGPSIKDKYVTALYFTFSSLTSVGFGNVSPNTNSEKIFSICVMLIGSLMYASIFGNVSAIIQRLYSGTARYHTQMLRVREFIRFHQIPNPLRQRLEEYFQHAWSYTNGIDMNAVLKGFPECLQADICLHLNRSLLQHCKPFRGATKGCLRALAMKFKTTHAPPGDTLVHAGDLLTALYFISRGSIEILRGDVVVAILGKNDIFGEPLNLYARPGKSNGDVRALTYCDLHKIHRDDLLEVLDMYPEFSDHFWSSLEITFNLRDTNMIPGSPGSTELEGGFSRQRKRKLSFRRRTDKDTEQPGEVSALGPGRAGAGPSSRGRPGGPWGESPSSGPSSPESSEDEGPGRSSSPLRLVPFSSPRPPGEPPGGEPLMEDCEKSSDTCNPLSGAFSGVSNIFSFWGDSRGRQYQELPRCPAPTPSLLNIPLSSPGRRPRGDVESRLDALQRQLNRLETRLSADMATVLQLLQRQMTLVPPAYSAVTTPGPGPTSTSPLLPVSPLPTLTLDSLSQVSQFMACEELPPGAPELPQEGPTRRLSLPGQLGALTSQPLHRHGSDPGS
Sequence of Voltage-gated inwardly rectifying potassium channel KCNH2 (Q12809 whole entry): as above

With `CCc1nc(-c2ccc(OC)cc2)n(-c2cccc(C(=O)NCCCCn3nccn3)c2)n1` the MRT [1] was 40.3 min, the Activity [2] was “Non-Toxic” and the Kd [3] was 170 nM. For the same molecule, the Vd [4] was 0.377 L/kg, the half-life [5] was 13.2 min and the IC50 [6] was 18.8 µM. The AUC(0-t) [7] was 751 ng·h/mL, the IC50 [8] was 140 nM and the IC50 [9] was 130 nM. For the same molecule, the Activity [10] was “inactive”, the IC50 [11] was 290 nM and the solubility [12] was 272 µM (≈ 121 µg/mL). For the same molecule, the IC50 [13] was 460 nM, the Activity [14] was 13.4% and the AUC(0-t) [15] was 4920 ng·h/mL. For the same molecule, the inhibition [16] was “Dose-Dependent Effect”, the IC50 [17] was over 10 µM and the solubility [18] was 1310 µM (≈ 582 µg/mL). The IC50 [19] was 440 nM, the inhibition at 40 µM [20] was 46.6% and the inhibition [21] was “Dose-Dependent Effect”. It also gave an IC50 [22] of over 10 µM, a clearance [23] of 22 mL/min/kg and an IC50 [24] of over 40 µM. For the same molecule, the Activity [25] was “Non-Toxic”, the inhibition in vivo at 30 mg/kg/day [26] was 68.5% and the Activity [27] was 12.6%. For the same molecule, the IC50 [28] was over 50 µM, the AUC(0-inf) [29] was 762 ng·h/mL and the Activity [30] was “Non-Toxic”. The Activity [31] was 37.6%, the Activity [32] was “Dose-Dependent Effect” and the IC50 ([32]; MGC-803, 24 h) was 60 nM. The Activity [33] was 40.6%, the Activity [34] was “Non-Toxic” and the Activity [35] was “Non-Toxic”. The inhibition in vivo at 15 mg/kg/day [36] was 55.1%, the Activity [37] was 1% and the inhibition [38] was “Active”. For the same molecule, the Activity [39] was 2.8%, the IC50 [40] was 14.7 µM and the Activity [41] was 0.6%. It also gave an Activity [42] of 4.7%, a Cmax [43] of 5820 ng/mL and an IC50 [44] of 160 nM.
